{
  "source": "patent US10638757B2",
  "about": "“Formulation systems for antimicrobial glycolipids” (IMD Natural Solutions GmbH, priority 2016, dated 2020)",
  "key": {"[1]": {"test": "Influence of the additives on the MIC of a mixture of antimicrobial glycolipids (qualitative)", "format": "cell-based", "settings": "additive 1 mg/ml", "quoted_text": "In addition, the influence of the additives on the MIC of a mixture of antimicrobial glycolipids is described qualitatively."}, "[2]": {"test": "Visual control of compatibility (turbidity, particles, precipitate) of beverages containing mixture of antimicrobial glycolipids with or without formulation stabilizer", "protocol": "All experiments done and reported in duplicate.\nPortions of about 50 mL each for the two beverages, “Gerolstetner Orangenlimonade” (turbid orange lemonade, de-gassed; cloudy beverage) and “REWE Apfelsaft” (clear apple juice, sterile filtered; clear beverage), were mixed with aliquots of a mixture of antimicrobial glycolipids and alpha-cyclodextrin as to establish the depicted nine combinations of concentrations (4-2 to 4-4 and 4-6 to 4-11, respectively); two control solutions with neither adding a mixture of antimicrobial glycolipids nor alpha-cyclodextrin were run in parallel (4-1 and 4-5, respectively).\nHowever, for the concentration of 10 μg/ml of mixture of antimicrobial glycolipids three combination with alpha-cyclodextrin, 25 (6-1, 6-2, 6-9, 6-10, 6-17, 6-18), 75 (6-3, 6-4, 6-11, 6-12, 6-19, 6-20) and 100 μg/ml (6-5, 6-6, 6-13, 6-14, 6-21, 6-22) and for the concentration of 25 μg/ml of mixture of antimicrobial glycolipids only 100 μg/ml alpha-cyclodextrin (6-7, 6-8, 6-15, 6-16, 6-23, 6-24) was used all with two test points, respectively.\n2×50 mL portion of the four solutions in the Erlenmeyer flasks were poured into clear and sterile polystyrol conical tubes and sealed for investigation of stability and compatibility of such beverages at three different temperatures (6/20/40° C.) each, resulting in four tubes per temperature and beverage. Such 24 tubes were stored for seven days and observed at day 0, 3 and 7 by measurement of turbidity as well as by optical inspection. A control solution without adding any components was run in parallel.\nPortions of about 50 mL each for the three beverages, “Gerolsteiner Orangenlimonade” (orange lemonade, de-gassed, cloudy beverage), “Kastell Zitronensprudel” (citrus lemonade, sterile filtered, clear beverage), and “REWE Apfelsaft” (clear apple juice, sterile filtered, clear beverage), were mixed with aliquots of a mixture of antimicrobial glycolipids as to establish the nine test solutions; three control solutions without adding a mixture of antimicrobial glycolipids were ran in parallel: […]"}, "[3]": {"test": "Comparison of alpha-cyclodextrin with Polysorbate 60: practicability in application in beverages and reliability in use", "settings": "compared with polysorbates", "text": "The preferred formulation stabilizers polysorbates and cyclodextrins have been further investigated towards their practicability in application in beverages as well as their reliability in use."}, "[4]": {"test": "Screening of additives as formulation stabilizers in combination with a mixture of antimicrobial glycolipids in water based formulations (turbidity, qualitative overview)", "protocol": "As to identify formulation stabilizer a screening was conducted in which additives typically used in food, cosmetic or medical applications were combined with a mixture of antimicrobial glycolipids in a water based formulation. A rather high concentration of 1000 mg/l for the formulation enhancing agents was used as to not miss potential effects whereas the mixture of antimicrobial glycolipids was applied in typical use concentrations, i.e. 5, 10 and 25 μg/ml.\nPortions of about 50 mL each for two beverages. “Gerolsteiner Orangenlimonade” (turbid orange lemonade, de-gassed; cloudy beverage) and “REWE Apfelsaft” (clear apple juice, sterile filtered; clear beverage) as well as for 10 mM citrate buffer is water (pH 3.0), were mixed each with aliquots of a mixture of antimicrobial glycolipids and the respective additives as to establish for each individually screened additive three combinations of concentrations (1000 μg/ml (with few exceptions as listed below) additive with 5, 10 and 25 μg/ml mixture of antimicrobial glycolipids, respectively); three controls with neither adding a mixture of antimicrobial glycolipids nor additive were run in parallel.\nThe necessary aliquots of a mixture of antimicrobial glycolipids were transferred from an aqueous stock solution containing 1 mg/ml mixture of antimicrobial glycolipids into the nine test solutions prepared for each additive.\nThe necessary aliquots of additives were transferred directly into the 50 mL portions.\nFor measurement of the turbidity the turbidity infrared device AL250T-IR from […]® was used. It was measured at three time points: day 0, 3, 7. All test samples were stored and handled at room temperature."}, "[5]": {"settings": "additive 1 mg/ml, independent of glycolipid mixture"}},
  "note": "“Also recorded” adds a separate entry of the source.",
  "data": [
    {"compound": "O=C(O)CN(CCN(CC(=O)O)CC(=O)O)CC(=O)O", "note": "[EDTA]", "values": [
      {"measurement": "Effect on MIC", "setting": "[1]", "result": "Impr."}
    ]},
    {"compound": "OC[C@H]1O[C@@H]2O[C@H]3[C@H](O)[C@@H](O)[C@@H](O[C@H]4[C@H](O)[C@@H](O)[C@@H](O[C@H]5[C@H](O)[C@@H](O)[C@@H](O[C@H]6[C@H](O)[C@@H](O)[C@@H](O[C@H]7[C@H](O)[C@@H](O)[C@@H](O[C@H]1[C@H](O)[C@H]2O)O[C@@H]7CO)O[C@@H]6CO)O[C@@H]5CO)O[C@@H]4CO)O[C@@H]3CO", "note": "[alpha-cyclodextrin]", "values": [
      {"measurement": "alpha-cyclodextrin concentration avoiding lack of compatibility", "setting": "[2]; 10 μg/ml mixture of antimicrobial glycolipids in apple juice at 4° C.", "result": 75, "unit": "µg/mL"},
      {"measurement": "alpha-cyclodextrin concentration needed to avoid lack of compatibility", "setting": "[2]; 10 μg/ml mixture of antimicrobial glycolipids in apple juice at 40° C.", "result": 100, "unit": "µg/mL"},
      {"measurement": "duration of improvement of compatibility", "setting": "[2]; alpha-cyclodextrin with 10 μg/ml mixture of antimicrobial glycolipids, apple juice", "result": "> 28", "unit": "days"},
      {"measurement": "overall rating as broadly applicable and reliable formulation stabilizer", "setting": "[3]", "result": "superior"}
    ]},
    {"compound": "OC[C@H]1O[C@@H]2O[C@H]3[C@H](O)[C@@H](O)[C@@H](O[C@H]4[C@H](O)[C@@H](O)[C@@H](O[C@H]5[C@H](O)[C@@H](O)[C@@H](O[C@H]6[C@H](O)[C@@H](O)[C@@H](O[C@H]7[C@H](O)[C@@H](O)[C@@H](O[C@H]8[C@H](O)[C@@H](O)[C@@H](O[C@H]9[C@H](O)[C@@H](O)[C@@H](O[C@H]1[C@H](O)[C@H]2O)O[C@@H]9CO)O[C@@H]8CO)O[C@@H]7CO)O[C@@H]6CO)O[C@@H]5CO)O[C@@H]4CO)O[C@@H]3CO", "note": "[gamma cyclodextrin]", "values": [
      {"measurement": "beneficial effects as formulation stabilizer for antimicrobial glycolipids", "setting": "[2]", "result": "less pronounced beneficial effects"}
    ]},
    {"compound": "Sorbitan monostearate", "values": [
      {"measurement": "Effect of additive itself on water based product", "setting": "[4]; additive 0.1 mg/ml", "result": "Weakly soluble"}
    ]},
    {"compound": "polyoxyethylene-(20)-sorbitane monolaurate [Polysorbate 20]", "values": [
      {"measurement": "Effect of additive itself on water based product", "setting": "[4]; [5]", "result": "Not compatible with apple juice."}
    ]},
    {"compound": "polyoxyethylene-(20)-sorbitane monooleate [Polysorbate 80]", "values": [
      {"measurement": "Effect of additive itself on water based product", "setting": "[4]; [5]", "result": "Increase of turbidity; also recorded: Not compatible with apple juice"}
    ]},
    {"compound": "polyoxyethylene-(20)-sorbitane monostearate [Polysorbate 60]", "values": [
      {"measurement": "Effect of additive itself on water based product", "setting": "[4]; [5]", "result": "Not compatible with apple juice."}
    ]}
  ]
}
